# From ChEMBL document CHEMBL4842321, “Novel benzenesulfonamides aryl and arylsulfone conjugates adopting tail/dual tail approaches: Synthesis, carbonic anhydrase inhibitory activity and molecular modeling studies” (Eur J Med Chem, 2021)
# Key:
# MCF7 = experiment: Antiproliferation activity against human MCF7 cells assessed as reduction in cell viability under hypoxic conditions by MTT assay
# Carbonic anhydrase 9 = Carbonic anhydrase 9 (Homo sapiens, UniProt Q16790); experiment: Inhibition of recombinant human carbonic anhydrase 9 by stopped-flow CO2 hydration assay
# MCF-10A = experiment: cells; settings: Homo sapiens
# Description: Antiproliferation activity against human MCF-10A cells assessed as reduction in cell viability under hypoxic conditions by MTT assay
# Carbonic anhydrase 4 = Carbonic anhydrase 4 (Homo sapiens, UniProt P22748); experiment: Inhibition of recombinant human carbonic anhydrase 4 by stopped-flow CO2 hydration assay
# Carbonic anhydrase 2 = Carbonic anhydrase 2 (Homo sapiens, UniProt P00918); experiment: Inhibition of recombinant human carbonic anhydrase 2 by stopped-flow CO2 hydration assay
# Carbonic anhydrase 1 = Carbonic anhydrase 1 (Homo sapiens, UniProt P00915); experiment: Inhibition of recombinant human carbonic anhydrase 1 by stopped-flow CO2 hydration assay
# Chain of Carbonic anhydrase 1 (P00915 whole entry): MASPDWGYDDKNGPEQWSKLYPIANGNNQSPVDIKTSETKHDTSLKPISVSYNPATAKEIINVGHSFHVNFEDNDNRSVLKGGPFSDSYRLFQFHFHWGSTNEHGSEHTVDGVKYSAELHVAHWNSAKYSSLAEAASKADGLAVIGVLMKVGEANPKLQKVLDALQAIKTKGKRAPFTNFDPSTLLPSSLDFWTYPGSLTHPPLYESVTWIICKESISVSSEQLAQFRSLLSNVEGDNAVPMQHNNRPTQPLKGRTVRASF
# Chain of Carbonic anhydrase 4 (P22748 whole entry): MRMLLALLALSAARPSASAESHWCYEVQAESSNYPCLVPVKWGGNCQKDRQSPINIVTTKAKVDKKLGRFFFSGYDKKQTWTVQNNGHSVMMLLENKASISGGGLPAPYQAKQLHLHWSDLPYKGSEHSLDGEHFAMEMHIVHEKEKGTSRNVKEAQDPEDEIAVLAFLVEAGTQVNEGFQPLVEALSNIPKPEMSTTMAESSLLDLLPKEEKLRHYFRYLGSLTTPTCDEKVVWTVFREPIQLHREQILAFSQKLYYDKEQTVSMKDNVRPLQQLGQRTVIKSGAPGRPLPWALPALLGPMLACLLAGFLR
Structure (SMILES),IC50 (MCF7) [µM],Ki (Carbonic anhydrase 9) [µM],IC50 (MCF-10A) [µM],Ki (Carbonic anhydrase 4) [µM],Ki (Carbonic anhydrase 2) [µM],Ki (Carbonic anhydrase 1) [µM]
NS(=O)(=O)c1ccc(C(=O)N/N=C(/CS(=O)(=O)c2ccccc2)c2ccc(Br)cc2)cc1,19.1,0.289,34.1,–,–,–
NS(=O)(=O)c1ccc(C(=O)N/N=C\c2ccc(F)cc2)cc1,9.17,2.37,35.9,–,–,–
NS(=O)(=O)c1ccc(N/N=C(/CS(=O)(=O)c2ccccc2)c2ccc(Cl)cc2)cc1,8.01,2.91,28.6,–,–,–
O=C(O)c1ccc(N/N=C(\C(=O)c2ccccc2)S(=O)(=O)c2ccccc2)cc1,–,> 100,–,> 100,> 100,> 100
O=C(O)c1ccc(N/N=C(/CS(=O)(=O)c2ccccc2)c2ccc(Br)cc2)cc1,–,> 100,–,> 100,> 100,> 100
O=C(O)c1ccc(N/N=C(/CS(=O)(=O)c2ccccc2)c2ccc(Cl)cc2)cc1,–,> 100,–,–,–,> 100
NS(=O)(=O)c1ccc(C(=O)N/N=C(/CS(=O)(=O)c2ccccc2)c2ccc(Cl)cc2)cc1,57,0.818,25.6,–,–,–
NS(=O)(=O)c1ccc(N/C=C(\C(=O)c2ccc(Cl)cc2)S(=O)(=O)c2ccccc2)cc1,15.1,3.01,28,–,–,–
O=C(O)c1ccc(N/C=C(\C(=O)c2ccc(Br)cc2)S(=O)(=O)c2ccccc2)cc1,–,> 100,–,> 100,–,> 100
NS(=O)(=O)c1ccc(C(=O)N/N=C\c2ccccc2)cc1,14.9,0.869,39.4,–,–,–
C/C(=N/NC(=O)c1ccc(S(N)(=O)=O)cc1)c1ccccc1,20.1,0.322,31.1,–,–,–
O=C(O)c1ccc(N/C=C(\C(=O)c2ccc(Cl)cc2)S(=O)(=O)c2ccccc2)cc1,–,> 100,–,> 100,> 100,> 100
O=c1[nH]cc(F)c(=O)[nH]1 [FLUOROURACIL],12.5,–,17.2,–,–,–
NS(=O)(=O)c1ccc(N/C=C(\C(=O)c2ccc(Br)cc2)S(=O)(=O)c2ccccc2)cc1,62.7,3.03,20.4,–,–,–
NS(=O)(=O)c1ccc(N/N=C(\C(=O)c2ccccc2)S(=O)(=O)c2ccccc2)cc1,1.74,1.61,14.1,–,–,–
NS(=O)(=O)c1ccc(C(=O)N/N=C(/CS(=O)(=O)c2ccccc2)c2ccccc2)cc1,10.7,0.769,84.8,–,–,–
NS(=O)(=O)c1ccc(C(=O)N/N=C\c2ccc(Br)cc2)cc1,1.37,2.21,27.7,–,–,–
O=C(O)c1ccc(N/C=C(\C(=O)c2ccccc2)S(=O)(=O)c2ccccc2)cc1,–,> 100,–,> 100,> 100,> 100
NS(=O)(=O)c1ccc(N/C=C(\C(=O)c2ccccc2)S(=O)(=O)c2ccccc2)cc1,3.44,2.76,17.9,–,–,–
NS(=O)(=O)c1ccc(C(=O)N/N=C\c2ccc(Cl)cc2)cc1,36.7,2.09,82,–,–,–
NS(=O)(=O)c1ccc(N/N=C(/CS(=O)(=O)c2ccccc2)c2ccc(Br)cc2)cc1,17.3,0.909,12.9,–,–,–
C/C(=N/NC(=O)c1ccc(S(N)(=O)=O)cc1)c1ccc(Cl)cc1,3.75,0.319,62.7,–,–,–
NS(=O)(=O)c1ccc(C(=O)N/N=C(/CS(=O)(=O)c2ccccc2)c2ccc(F)cc2)cc1,0.62,1.12,63.7,–,–,–
NS(=O)(=O)c1ccc(N/N=C(/CS(=O)(=O)c2ccccc2)c2ccccc2)cc1,3.97,2.49,46.1,–,–,–
C/C(=N/NC(=O)c1ccc(S(N)(=O)=O)cc1)c1ccc(F)cc1,31.9,1.45,22,–,–,–
C/C(=N/NC(=O)c1ccc(S(N)(=O)=O)cc1)c1ccc(Br)cc1,2.29,0.962,37.6,–,–,–
O=C(O)c1ccc(N/N=C(/CS(=O)(=O)c2ccccc2)c2ccccc2)cc1,–,> 100,–,> 100,–,–
